Source: PMC7827406, “Structure–Activity Relationship (SAR) Study of Spautin-1 to Entail the Discovery of Novel NEK4 Inhibitors” (International Journal of Molecular Sciences, 2021)
Read-outs that look alike come from different tables or passages of the source.

Experiments:
Assay in all cases: biochemical
Parameters in all cases: Eurofins KinaseProfiler full panel at Km ATP, residual kinase activity (%) relative to DMSO
[1] = target: T1, Abl (Q252H) (h) (Homo sapiens, UniProt P00519, Q252H)
T1 construct: gene ABL1
In short: (§1)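 Compounds screened at 10 µM in radiometric kinase activity assays at Km ATP, reported as remaining kinase activity (%). A KINOMEscan competition-binding screen at 10 µM measured DNA-tagged kinase retained on immobilized active-site ligand by qPCR.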

[2] = target: EGFR(L861Q)(h) (Homo sapiens, UniProt P00533, L861Q)
In short: as §1

[3] = target: Flt1(h) (Homo sapiens, UniProt P17948)
In short: as §1

[4] = target: Lck(h) activated (Homo sapiens, UniProt P06239)
Lck(h) activated, sequence (P06239 whole entry): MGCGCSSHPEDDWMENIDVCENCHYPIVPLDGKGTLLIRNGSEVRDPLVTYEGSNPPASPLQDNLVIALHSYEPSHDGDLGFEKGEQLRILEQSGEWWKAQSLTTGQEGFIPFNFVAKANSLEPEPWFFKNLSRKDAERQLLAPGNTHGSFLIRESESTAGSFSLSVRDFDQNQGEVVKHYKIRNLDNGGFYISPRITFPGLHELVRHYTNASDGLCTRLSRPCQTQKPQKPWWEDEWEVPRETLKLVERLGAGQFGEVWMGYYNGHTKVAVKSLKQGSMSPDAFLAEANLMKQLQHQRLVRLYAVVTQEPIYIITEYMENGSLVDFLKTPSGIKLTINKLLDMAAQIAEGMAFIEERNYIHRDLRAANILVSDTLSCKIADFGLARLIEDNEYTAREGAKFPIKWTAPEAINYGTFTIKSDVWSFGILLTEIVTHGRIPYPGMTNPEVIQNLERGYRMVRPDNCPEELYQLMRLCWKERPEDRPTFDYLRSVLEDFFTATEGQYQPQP
In short: as §1

[5] = target: T2, NEK3(h) (Homo sapiens, UniProt P51956)
T2 sequence (P51956 1-506): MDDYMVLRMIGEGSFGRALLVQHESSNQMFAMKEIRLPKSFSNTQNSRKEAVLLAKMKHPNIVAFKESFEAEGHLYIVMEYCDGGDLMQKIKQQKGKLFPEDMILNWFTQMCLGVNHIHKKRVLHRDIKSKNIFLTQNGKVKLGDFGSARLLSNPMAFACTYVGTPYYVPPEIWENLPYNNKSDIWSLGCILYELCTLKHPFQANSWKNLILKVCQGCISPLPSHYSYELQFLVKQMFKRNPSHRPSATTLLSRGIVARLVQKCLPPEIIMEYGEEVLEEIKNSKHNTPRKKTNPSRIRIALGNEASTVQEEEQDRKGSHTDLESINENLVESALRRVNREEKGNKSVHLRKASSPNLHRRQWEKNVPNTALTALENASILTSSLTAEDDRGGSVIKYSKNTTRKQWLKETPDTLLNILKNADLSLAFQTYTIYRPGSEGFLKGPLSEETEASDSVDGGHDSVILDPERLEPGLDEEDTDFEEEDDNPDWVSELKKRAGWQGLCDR
In short: as §1

[6] = target: T3, PI3 Kinase (p110d/p85a)(m) (Mus musculus, UniProt O35904)
T3 construct: gene Pik3cd
T3 sequence (O35904 whole entry): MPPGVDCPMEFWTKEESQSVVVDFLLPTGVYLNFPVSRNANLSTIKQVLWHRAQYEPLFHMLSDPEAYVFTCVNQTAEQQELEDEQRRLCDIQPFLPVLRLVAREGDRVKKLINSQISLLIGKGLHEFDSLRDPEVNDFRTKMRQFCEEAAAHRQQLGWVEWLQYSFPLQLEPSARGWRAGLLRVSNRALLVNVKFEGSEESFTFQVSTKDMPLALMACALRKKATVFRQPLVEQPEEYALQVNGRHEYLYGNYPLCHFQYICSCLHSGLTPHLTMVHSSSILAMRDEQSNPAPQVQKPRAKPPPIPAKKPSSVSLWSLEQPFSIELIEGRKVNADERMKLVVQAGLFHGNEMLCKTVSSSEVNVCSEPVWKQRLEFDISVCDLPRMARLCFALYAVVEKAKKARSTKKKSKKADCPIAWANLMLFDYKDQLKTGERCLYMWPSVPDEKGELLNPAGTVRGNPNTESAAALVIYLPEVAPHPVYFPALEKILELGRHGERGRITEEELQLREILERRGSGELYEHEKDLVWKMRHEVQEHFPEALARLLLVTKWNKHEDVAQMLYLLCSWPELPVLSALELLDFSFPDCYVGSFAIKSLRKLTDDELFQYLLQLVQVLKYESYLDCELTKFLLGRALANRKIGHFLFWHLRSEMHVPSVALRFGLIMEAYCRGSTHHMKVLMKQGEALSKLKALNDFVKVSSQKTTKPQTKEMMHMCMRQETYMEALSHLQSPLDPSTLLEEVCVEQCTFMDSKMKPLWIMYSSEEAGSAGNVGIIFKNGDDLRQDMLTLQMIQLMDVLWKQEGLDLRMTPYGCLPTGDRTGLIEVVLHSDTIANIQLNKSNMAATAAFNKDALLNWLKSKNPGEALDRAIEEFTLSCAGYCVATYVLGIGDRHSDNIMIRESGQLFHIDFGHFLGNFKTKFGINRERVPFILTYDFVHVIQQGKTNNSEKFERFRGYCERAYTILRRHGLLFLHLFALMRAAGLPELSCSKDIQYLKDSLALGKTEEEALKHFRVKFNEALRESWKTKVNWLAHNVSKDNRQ
T3 sequence (P26450 whole entry partner): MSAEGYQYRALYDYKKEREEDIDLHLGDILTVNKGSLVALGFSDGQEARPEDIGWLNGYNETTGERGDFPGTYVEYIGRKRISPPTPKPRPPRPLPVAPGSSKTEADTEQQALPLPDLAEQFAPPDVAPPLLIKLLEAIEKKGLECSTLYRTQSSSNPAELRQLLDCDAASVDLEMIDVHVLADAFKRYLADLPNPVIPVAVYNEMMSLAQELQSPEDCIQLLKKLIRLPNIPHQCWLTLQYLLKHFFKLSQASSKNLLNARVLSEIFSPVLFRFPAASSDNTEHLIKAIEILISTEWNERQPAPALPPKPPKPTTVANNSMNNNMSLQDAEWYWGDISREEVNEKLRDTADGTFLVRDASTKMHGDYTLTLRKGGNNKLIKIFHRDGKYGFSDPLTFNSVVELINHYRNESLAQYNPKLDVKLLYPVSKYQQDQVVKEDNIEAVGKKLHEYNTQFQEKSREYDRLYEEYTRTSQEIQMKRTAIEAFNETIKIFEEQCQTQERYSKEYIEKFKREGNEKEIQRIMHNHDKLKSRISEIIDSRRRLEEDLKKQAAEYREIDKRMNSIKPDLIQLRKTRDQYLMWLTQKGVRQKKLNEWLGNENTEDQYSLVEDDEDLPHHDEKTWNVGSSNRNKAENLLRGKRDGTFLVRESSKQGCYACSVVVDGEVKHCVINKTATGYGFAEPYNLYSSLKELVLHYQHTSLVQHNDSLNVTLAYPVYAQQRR
In short: as §1

[7] = target: SLK(h) (Homo sapiens, UniProt Q9H2G2)
SLK(h), sequence (Q9H2G2 whole entry): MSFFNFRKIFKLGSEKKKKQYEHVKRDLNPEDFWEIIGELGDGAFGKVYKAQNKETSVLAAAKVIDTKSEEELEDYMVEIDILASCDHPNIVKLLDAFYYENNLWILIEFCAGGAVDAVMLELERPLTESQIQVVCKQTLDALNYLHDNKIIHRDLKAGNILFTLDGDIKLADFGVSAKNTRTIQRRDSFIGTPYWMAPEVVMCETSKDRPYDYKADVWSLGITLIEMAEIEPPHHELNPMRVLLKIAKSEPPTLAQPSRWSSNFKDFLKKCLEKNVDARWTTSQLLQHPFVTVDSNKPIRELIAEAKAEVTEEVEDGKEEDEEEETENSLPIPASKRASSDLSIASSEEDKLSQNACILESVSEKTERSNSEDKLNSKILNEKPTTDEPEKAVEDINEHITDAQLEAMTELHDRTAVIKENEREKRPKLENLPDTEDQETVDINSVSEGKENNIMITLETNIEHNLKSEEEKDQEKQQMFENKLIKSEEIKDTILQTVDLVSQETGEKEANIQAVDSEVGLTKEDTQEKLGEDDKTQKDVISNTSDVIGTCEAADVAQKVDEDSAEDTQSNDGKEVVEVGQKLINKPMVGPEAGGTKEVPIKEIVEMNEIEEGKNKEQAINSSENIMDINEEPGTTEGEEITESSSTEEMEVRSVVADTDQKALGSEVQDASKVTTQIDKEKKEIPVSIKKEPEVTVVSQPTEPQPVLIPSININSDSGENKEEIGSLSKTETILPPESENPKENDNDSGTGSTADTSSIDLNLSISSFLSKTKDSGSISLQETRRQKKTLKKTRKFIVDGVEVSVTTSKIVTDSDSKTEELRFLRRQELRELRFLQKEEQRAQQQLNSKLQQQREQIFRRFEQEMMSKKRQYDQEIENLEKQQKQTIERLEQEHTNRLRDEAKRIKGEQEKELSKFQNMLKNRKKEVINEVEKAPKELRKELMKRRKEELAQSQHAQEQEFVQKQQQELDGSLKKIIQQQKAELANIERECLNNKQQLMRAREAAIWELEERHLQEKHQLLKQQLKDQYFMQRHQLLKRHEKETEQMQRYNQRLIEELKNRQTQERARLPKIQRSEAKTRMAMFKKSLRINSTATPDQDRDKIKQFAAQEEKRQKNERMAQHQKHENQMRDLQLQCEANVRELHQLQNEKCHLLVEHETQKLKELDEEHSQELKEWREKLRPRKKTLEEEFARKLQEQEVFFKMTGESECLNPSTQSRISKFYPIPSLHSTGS
In short: as §1

[8] = target: T4, ZAP-70(h) (Homo sapiens, UniProt P43403)
T4 construct: gene ZAP70
T4 sequence (P43403 1-619): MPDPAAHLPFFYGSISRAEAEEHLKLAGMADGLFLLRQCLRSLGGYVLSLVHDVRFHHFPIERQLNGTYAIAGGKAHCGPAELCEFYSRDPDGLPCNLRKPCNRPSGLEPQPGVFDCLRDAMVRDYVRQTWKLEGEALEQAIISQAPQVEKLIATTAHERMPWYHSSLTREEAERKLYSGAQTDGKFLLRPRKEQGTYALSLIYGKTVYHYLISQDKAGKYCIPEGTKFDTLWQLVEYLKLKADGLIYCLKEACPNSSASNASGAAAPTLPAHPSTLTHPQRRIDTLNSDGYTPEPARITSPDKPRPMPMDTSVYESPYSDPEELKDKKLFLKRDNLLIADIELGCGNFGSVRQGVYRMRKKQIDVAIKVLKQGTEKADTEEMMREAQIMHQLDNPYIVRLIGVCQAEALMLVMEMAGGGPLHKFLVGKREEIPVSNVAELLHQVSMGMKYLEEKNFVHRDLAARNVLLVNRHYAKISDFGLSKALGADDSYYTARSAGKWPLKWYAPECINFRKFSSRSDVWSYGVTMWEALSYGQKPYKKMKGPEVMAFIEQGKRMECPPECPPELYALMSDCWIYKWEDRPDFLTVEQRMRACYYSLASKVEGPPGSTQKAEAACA
In short: as §1

[9] = target: T5, p70S6K(h) (Homo sapiens, UniProt P23443)
T5 construct: gene RPS6KB1
T5 sequence (P23443 whole entry): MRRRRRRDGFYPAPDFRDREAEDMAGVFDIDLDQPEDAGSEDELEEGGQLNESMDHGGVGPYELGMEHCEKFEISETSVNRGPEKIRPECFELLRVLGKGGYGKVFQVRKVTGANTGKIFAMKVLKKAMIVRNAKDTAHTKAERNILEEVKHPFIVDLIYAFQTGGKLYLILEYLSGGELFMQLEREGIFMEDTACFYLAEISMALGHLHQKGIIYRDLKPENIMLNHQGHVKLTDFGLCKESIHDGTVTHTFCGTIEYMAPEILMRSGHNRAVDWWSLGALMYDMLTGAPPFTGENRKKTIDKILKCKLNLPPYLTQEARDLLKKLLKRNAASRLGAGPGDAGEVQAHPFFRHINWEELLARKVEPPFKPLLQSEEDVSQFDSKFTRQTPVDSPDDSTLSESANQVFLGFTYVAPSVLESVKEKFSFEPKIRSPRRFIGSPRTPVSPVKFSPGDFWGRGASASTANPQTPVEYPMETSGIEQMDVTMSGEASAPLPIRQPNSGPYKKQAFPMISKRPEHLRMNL
In short: as §1

[10] = read-out: Residual activity (%) Spautin-1 5aa
[11] = read-out: Residual activity (%) 5as
[12] = read-out: Residual activity (%) 5at
[13] = read-out: Residual activity (%) 5ay

SMILES: Fc1ccc(CNc2ncnc3ccc(F)cc23)cc1 [5aa, 6-Fluoro-N-(4-fluorobenzyl)-4-Quinazolinamine]
- remaining activity at 10 µM [1, 10]: 104%
- remaining activity at 10 µM [2, 10]: 36%
- remaining activity at 10 µM [3, 10]: 101%
- remaining activity at 10 µM [4, 10]: 93%
- remaining activity at 10 µM [5, 10]: 71%
- remaining activity at 10 µM [6, 10]: 97%
- remaining activity at 10 µM [7, 10]: 98%
- remaining activity at 10 µM [8, 10]: 146%
- remaining activity at 10 µM [9, 10]: 91%

SMILES: Fc1ccc(CCNc2ncnc3ccc(F)cc23)cc1 [5as, 6-Fluoro-N-[2-(4-Fluorophenyl)Ethyl]-4-Quinazolinamine]
- remaining activity at 10 µM [1, 11]: 104%
- remaining activity at 10 µM [2, 11]: 51%
- remaining activity at 10 µM [3, 11]: 86%
- remaining activity at 10 µM [4, 11]: 100%
- remaining activity at 10 µM [5, 11]: 80%
- remaining activity at 10 µM [6, 11]: 93%
- remaining activity at 10 µM [7, 11]: 77%
- remaining activity at 10 µM [8, 11]: 146%
- remaining activity at 10 µM [9, 11]: 81%

SMILES: Fc1ccc2ncnc(NCCc3ccc(Cl)cc3)c2c1 [5at, N-[2-(4-Chlorophenyl)Ethyl]-6-Fluoro-4-Quinazolinamine]
- remaining activity at 10 µM [1, 12]: 88%
- remaining activity at 10 µM [2, 12]: 73%
- remaining activity at 10 µM [3, 12]: 80%
- remaining activity at 10 µM [4, 12]: 91%
- remaining activity at 10 µM [5, 12]: 99%
- remaining activity at 10 µM [6, 12]: 93%
- remaining activity at 10 µM [7, 12]: 78%
- remaining activity at 10 µM [8, 12]: 130%
- remaining activity at 10 µM [9, 12]: 83%

SMILES: COc1ccc2ncnc(Nc3cccc(F)c3)c2c1 [5ay, N-(3-Fluorophenyl)-6-Methoxy-4-Quinazolinamine]
- remaining activity at 10 µM [1, 13]: 80%
- remaining activity at 10 µM [3, 13]: 87%
- remaining activity at 10 µM [4, 13]: 73%
- remaining activity at 10 µM [5, 13]: 87%
- remaining activity at 10 µM [6, 13]: 96%
- remaining activity at 10 µM [7, 13]: 70%
- remaining activity at 10 µM [8, 13]: 113%
- remaining activity at 10 µM [9, 13]: 76%
